Holding throughout (assay): NCI anticancer screen, dose series, 48 h
In experiment [1] the test system is HL-60(TB) leukemia.
For experiment [2], the system named is PC-3 prostate.
In experiment [3] the test system is T-47D breast.
Experiment [4] deals with OVCAR-8 ovarian.
Experiment [5] has as its system U251 CNS.
The subject of experiment [6] is UO-31 renal.
For experiment [7], the system named is NCI/ADR-RES ovarian.
The subject of experiment [8] is UACC-62 melanoma.
Experiment [9] concerns MOLT-4 leukemia.
Experiment [10] has as its system IGROV1 ovarian.

Molecules are shown by their SMILES.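 Each compound was tested at five concentrations against cells in 96-well plates for 48 hours. GI50 is the concentration that inhibits growth by half. TGI is the concentration that stops growth completely.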

Take `N#CN1CC[C@H](C(=O)Nc2cc3cc(C(N)=O)ccc3cn2)C1`: the GI50 in experiment [1] was 0.109 µM; in experiment [2], 0.257 µM; in experiment [3], 0.016 µM; in [4], 0.0993 µM; in experiment [5] it was 0.0815 µM; in [6], 0.107 µM. In addition, the GI50 was 0.192 µM in [7], 0.0587 µM in experiment [8], 0.0488 µM in experiment [9] and 0.387 µM in [10]. For the same compound, the TGI was 0.443 µM in experiment [1]; 20.4 µM in experiment [2]; 0.0651 µM in [3]; more than 46.3 µM in [4]; 38.4 µM in [5]; 0.518 µM in [6]. Further, the TGI in experiment [7] is more than 100 µM; in [8], 0.399 µM; in experiment [10], more than 25.3 µM.
`Cc1cc(Cl)ccc1Nc1nc(C(F)(F)F)ccc1C(=O)N/N=C/c1ccccc1Cl`: the GI50 in [1] is 1.12 µM; in experiment [2] it was 0.866 µM; in experiment [3] it was 0.824 µM; in [4], 2.16 µM; in [5], 0.526 µM; in experiment [6], 1.29 µM. The GI50 in experiment [7] is 1.19 µM; in [8], 1.43 µM; in [9], 1.29 µM; in experiment [10], 1.57 µM. Moreover, the TGI was more than 26 µM in [2]; 4.63 µM in experiment [3]; more than 92.7 µM in [4]; 4.86 µM in [5]; 4.15 µM in experiment [6]; 7.16 µM in [7]. In addition, the TGI was 5.36 µM in experiment [8], more than 100 µM in [9] and more than 42.2 µM in experiment [10].
As to `COc1ccc(/C=C\c2cc(OC)c(OC)c(OC)c2)cc1OCC(=O)Nc1ccc2nc(C)sc2c1`, the GI50 was 2.8 µM in [2]; 9.41 µM in [3]; 2.12 µM in experiment [4]; 3.59 µM in experiment [5]; 2.41 µM in experiment [6]; 2.36 µM in experiment [7]. Further, the values for the GI50 in experiment [8], in [9] and in experiment [10] were 2.19 µM, 2.11 µM and 3.72 µM, respectively. For the same compound, the TGI was 8.01 µM in experiment [2]; 33.8 µM in experiment [3]; 5.41 µM in [4]; more than 100 µM in experiment [5]; 7.5 µM in experiment [6]; 8 µM in experiment [7]. In addition, the TGI in [8] stood at 5.16 µM; in experiment [9], 5.68 µM; in experiment [10], 15.7 µM.
On to `O=C1c2ccccc2C(=O)c2c(NCC3CO3)ccc(NCC3CO3)c21` (stereo not drawn), for which the TGI in experiment [2] was 9.61 µM; in experiment [3], more than 42.1 µM; in experiment [4], 2.49 µM; in [5], 8.38 µM; in [6], 5.13 µM; in experiment [7], 11.4 µM. Moreover, the TGI in experiment [9] was 0.53 µM; in experiment [10], 15.9 µM.
For the compound `O=C(c1ccccc1)n1c(-c2ccccc2)cs/c1=N\S(=O)(=O)c1ccc(N2N=C3c4ccccc4CC3C2c2cccs2)cc1` (stereo not drawn), the GI50 was 39.2 µM in experiment [2]; more than 100 µM in experiment [3]; 42.9 µM in experiment [4]; 32 µM in experiment [5]; 98.1 µM in experiment [6]; more than 100 µM in [7]. The GI50 in experiment [8] is 27.3 µM; in experiment [9], 0.305 µM; in experiment [10], more than 100 µM. In addition, the TGI in experiment [2], in experiment [3], in experiment [4], in experiment [5], in [6] and in experiment [7] was more than 100 µM throughout. Also, the TGI in [8] is 87.2 µM; in [9] it was 21.2 µM; in experiment [10], more than 100 µM.
Consider `COc1ccc(N(/C=C/C(=O)C(F)(F)F)CC(=O)c2ccc(Cl)cc2)cc1`, for which the GI50 was 14.2 µM in [2]; 21.9 µM in experiment [3]; 13.5 µM in [4]; 13.7 µM in [5]; 13.4 µM in [6]; 15.7 µM in [7]. Besides, the GI50 in [8] was 8.34 µM; in experiment [9] it was 15.4 µM; in [10], 6.14 µM. Further, the TGI was 32.8 µM in experiment [2]; more than 100 µM in [3]; 40 µM in experiment [4]; 26.7 µM in experiment [5]; 28.6 µM in experiment [6]; 53.1 µM in [7]. Further, the TGI was determined as 20.7 µM in experiment [8], 55.5 µM in [9] and 21.7 µM in experiment [10].
As for `COc1ccc(Nc2nc3cc(N)cc(N)c3nc2-c2ccccc2)cc1OC`, the GI50 in experiment [2] is 14 µM; in experiment [3], 14.4 µM; in [4], 33.6 µM; in experiment [5], 26 µM; in [6], 28.1 µM; in experiment [7], 17.2 µM. Besides, the GI50 in [8] was 13.4 µM; in experiment [9], 6.91 µM; in experiment [10], 24.8 µM. For the same compound, the TGI in experiment [2] is 36 µM; in [3], 38.2 µM; in experiment [4] it was more than 100 µM; in experiment [5], more than 100 µM; in experiment [6], more than 100 µM; in experiment [7], 42.7 µM. The TGI is 27.4 µM in experiment [8], more than 100 µM in experiment [9] and more than 100 µM in experiment [10].
